How the values were obtained:
[1] = taken orally; cited from earlier work
[2] = tested on: formulation strains (AMUC, BINF, CBEI, CBUT, EHAL); format: cell-based

Compound	fecal elimination percentage [1]	plasma half-life [1]	growth inhibition of formulation strains (yield decrease, lag increase) [2]
COc1ccc(Cl)cc1C(=O)NCCc1ccc(S(=O)(=O)NC(=O)NC2CCCCC2)cc1 [glyburide]	50%	4 to 10 h	largest inhibitory effect overall
CCC1=C(C)CN(C(=O)NCCc2ccc(S(=O)(=O)NC(=O)N[C@H]3CC[C@H](C)CC3)cc2)C1=O [glimepiride]	40%	5 to 8 h	largest inhibitory effect overall
Cc1cnc(C(=O)NCCc2ccc(S(=O)(=O)NC(=O)NC3CCCCC3)cc2)cn1 [glipizide]	10%	–	–

From patent US20240277781A1, “Compositions Comprising Microbes and Methods of Use and Making Thereof” (Pendulum Therapeutics, Inc., priority 2021, published 2024)
